# Counter-ions that a name gives are not always drawn.
row,flash point,Structure (SMILES)
1,-20.00 °C,C1CCCCC1 [cyclohexane]
2,74.00 °C,CNCCO [2-(methylamino)ethanol]
3,74.00 °C,CCCCCCCCCCCC [dodecane]
4,44.00 °C,"Cc1cccc(C)c1C [1,2,3-trimethylbenzene]"

row,Structure (SMILES),flash point
1,"Cc1cc(C)cc(C)c1 [1,3,5-trimethylbenzene]",50.00 °C
2,Cc1ccccc1 [toluene],4.00 °C
3,CCCCCC [hexane],-23.00 °C

# Remark: another data set of the same source
row,flash point,Structure (SMILES)
1,-18 °C,C1CCCCC1 [cyclohexane]
2,72 °C,CNCCO [2-(methylamino)ethanol]
3,71 °C,CCCCCCCCCCCC [dodecane]
4,51 °C,"Cc1cccc(C)c1C [1,2,3-trimethylbenzene]"
5,72 °C,"CCCc1cccc(C)c1C [1,2-dimethyl-3-propylbenzene]"
6,74 °C,CCCCC(CC)CO (centres undefined) [2-ethyl-1-hexanol]

row,Structure (SMILES),flash point
1,"Cc1cc(C)cc(C)c1 [1,3,5-trimethylbenzene]",44 °C
2,Cc1ccccc1 [toluene],7 °C
3,CCCCCC [hexane],-26 °C

# Remark: another data set of the same source
row,flash point,Structure (SMILES)
1,7 °C,CC(C)(C)c1ccco1 [2-t-butylfuran]
2,119 °C,C=CCCCCCCCCO [9-decen-1-ol]
3,-6 °C,CC=C(C)CC [3-methyl-2-pentene]
4,-15 °C,Fc1ccccc1 [fluorobenzene]
5,91 °C,CCOC(=O)/C=C/C(=O)OCC [diethyl fumarate]
6,34 °C,O=C1C=CCCC1 [2-cyclohexen-1-one]
7,-95 °C,C1CC1 [cyclopropane]
8,31 °C,c1cncnc1 [pyrimidine]
9,6 °C,"C[C@H]1CC[C@@H](C)CC1 [cis-1,4-dimethylcyclohexane]"
10,-57 °C,C=CC(C)C [3-methyl-1-butene]
11,37 °C,CCCOC(=O)CCC [propyl butyrate]
12,4 °C,"CC(C)(C)C#N [2,2-dimethylpropanenitrile]"
13,7 °C,CCCCC(C)CC (centres undefined) [3-methylheptane]
14,88 °C,C/C=C/C(=O)O [crotonic acid]
15,40 °C,CCSSCC [diethyl disulfide]
16,-4 °C,NC1CCC1 [cyclobutylamine]
17,-31 °C,C=CCC(C)C [4-methyl-1-pentene]
18,55 °C,O=C1CCCCCC1 [cycloheptanone]
19,101 °C,"CC(O)CCC(C)O (centres undefined) [2,5-hexanediol]"
20,84 °C,CC1=CC(=O)CC(C)(C)C1 [isophorone]
21,40 °C,Cc1cccnc1 [3-picoline]
22,-30 °C,CCC(C)OC (centres undefined) [methyl sec-butyl ether]
23,93 °C,"CCC(O)CO (centres undefined) [1,2-butanediol]"
24,41 °C,CCCCCCCCl [1-chloroheptane]
25,60 °C,CC(C)(C)c1ccccc1 [t-butylbenzene]

row,flash point,Structure (SMILES)
1,55 °C,CC(C)C(=O)O [isobutyric acid]
2,58 °C,CC1CCCCC1O (centres undefined) [2-methylcyclohexanol]
3,26 °C,CCC(C)O (centres undefined) [sec-butanol]
4,-45 °C,C=COCC [ethyl vinyl ether]
5,43 °C,CCC(=O)CC(C)CC (centres undefined) [5-methyl-3-heptanone]
6,18 °C,C1CCCNCC1 [hexamethyleneimine]
7,67 °C,CC(C)(N)CO [2-amino-2-methyl-1-propanol]
8,51 °C,OC1CCCC1 [cyclopentanol]
9,-29 °C,CC(C)OC(C)C [isopropyl ether]
10,48 °C,CC(C)(C)SC(C)(C)C [di-t-butyl sulfide]
11,43 °C,CC(C)OCCO [2-isopropoxyethanol]
12,95 °C,"SCCCCCS [1,5-pentanedithiol]"
13,19 °C,CC(C)C(C)S (centres undefined) [3-methyl-2-butanethiol]
14,53 °C,"COC(CBr)OC [2-bromo-1,1-dimethoxyethane]"
15,21 °C,C=CCCCCCC [1-octene]
16,10 °C,"CC1CCC(C)CC1 (centres undefined) [1,4-dimethylcyclohexane]"
17,16 °C,CCNC(C)C [N-ethylisopropylamine]
18,-10 °C,CCCCOC [1-methoxybutane]
19,107 °C,CCCCCCCCCC(C)O (centres undefined) [2-undecanol]
20,60 °C,CC(=O)CC(=O)OC(C)(C)C [t-butyl acetoacetate]
21,13 °C,CCOC(=O)C(C)C [ethyl isobutyrate]
22,-3 °C,CCCC(C)CC (centres undefined) [3-methylhexane]
23,10 °C,CC(C)COC=O [isobutyl formate]
24,36 °C,CC=NO [acetaldoxime]
25,51 °C,CC(C)CCCO [4-methyl-1-pentanol]

row,flash point,Structure (SMILES)
1,15 °C,C#CCCCCl [5-chloro-1-pentyne]
2,71 °C,CNCCO [2-methylaminoethanol]
3,-18 °C,CN1CCCC1 [1-methylpyrrolidine]
4,83 °C,COC(=O)c1ccccc1 [methyl benzoate]
5,-23 °C,"CCN(C)CC [N,N-diethylmethylamine]"
6,7 °C,Cc1cccs1 [2-methylthiophene]
7,-27 °C,"C=CCCC=C [1,5-hexadiene]"
8,-40 °C,CCC=O [propionaldehyde]
9,71 °C,OC1CCCCCC1 [cycloheptanol]
10,24 °C,CCC(C)C(CC)CC (centres undefined) [3-methyl-4-ethylhexane]
11,131 °C,"OCCCO [1,3-propanediol]"
12,35 °C,CC(C)C1CCCCC1 [isopropylcyclohexane]
13,-24 °C,CC(C)C=O [isobutyraldehyde]
14,38 °C,Cc1cccnc1 [3-methylpyridine]
15,65 °C,CCCCCc1ccccc1 [pentylbenzene]
16,51 °C,CCCCCCCCCC [n-decane]
17,15 °C,"CC1CCCCC1C (centres undefined) [1,2-dimethylcyclohexane]"
18,38 °C,CC=C1CC2C=CC1C2 (centres undefined) [5-ethylidene-2-norbornene]
19,88 °C,"CC(C)(C)CC(=O)O [3,3-dimethylbutanoic acid]"
20,-28 °C,CCCOCCC [n-propyl ether]
21,-5 °C,CCCCOCC [butyl ethyl ether]
22,69 °C,CCCCCCCCS [1-octanethiol]
23,15 °C,Cn1cccc1 [1-methylpyrrole]
24,-11 °C,"C1=CC2C=CC1C2 [2,5-norbornadiene]"

row,Structure (SMILES),flash point
1,CN=C=S [methyl isothiocyanate],32 °C
2,CCCCOC(C)=O [n-butyl acetate],22 °C
3,Clc1ccccc1 [chlorobenzene],27 °C
4,O=C(OCc1ccccc1)c1ccccc1 [benzyl benzoate],147 °C
5,CCCCCCCC#N [octanenitrile],73 °C
6,CC=O [ethanal],-39 °C
7,C=CC1CC=CCC1 (centres undefined) [4-vinyl-1-cyclohexene],16 °C
8,O=C1OC(=O)c2ccccc21 [phthalic anhydride],152 °C
9,CC(=O)C=C(C)C [mesityl oxide],25 °C
10,CCCCN(CCCC)CCCC [tributylamine],72 °C
11,C1CCNCC1.Cl [piperidine hydrochloride],65 °C
12,"C=C(Cl)Cl [1,1-dichloroethylene]",-25 °C
13,"CC(C)(Cl)Cl [2,2-dichloropropane]",-5 °C
14,C=CC(=O)OCC(CC)CCCC (centres undefined) [2-ethylhexyl acrylate],86 °C
15,C=CCOC(C)=O [allyl acetate],6 °C
16,"OCCCCCO [1,5-pentanediol]",136 °C
17,"N#CCCCCC#N [1,4-dicyanobutane]",159 °C
18,CCCCCCC#N [heptanenitrile],58 °C
19,CCCC(=O)OCC [ethyl butyrate],19 °C
20,CCCCOCCCN [3-butoxypropylamine],63 °C
21,COC [dimethylether],-83 °C
22,CCCCC#N [valeronitrile],40 °C
23,C=CC#N [acrylonitrile],-1 °C
24,CCC(C)I (centres undefined) [2-iodobutane],23 °C
25,C=C(C)C#N [methacrylonitrile],1 °C

row,Structure (SMILES),flash point
1,CCCCCBr [1-bromopentane],31 °C
2,"NCCCN [1,3-propanediamine]",48 °C
3,Cc1cc(C)cc(C)c1 [mesitylene],50 °C
4,CCCC(C)O (centres undefined) [2-pentanol],40 °C
5,"CCC(Cl)CCl (centres undefined) [1,2-dichlorobutane]",26 °C
6,CC(=O)OCCC(C)C [isopentyl acetate],25 °C
7,C=CC(=O)OCC [ethyl acrylate],9 °C
8,Clc1cccc(Cl)c1 [m-dichlorobenzene],63 °C
9,CC(=O)O [ethanoic acid],39 °C
10,CN [methylamine],-62 °C
11,OCc1ccco1 [furfuryl alcohol],65 °C
12,CC(=O)OC(C)C [isopropyl acetate],2 °C
13,"Clc1ccccc1Cl [1,2-dichlorobenzene]",67 °C
14,COC(=O)c1ccccc1O [methyl salicylate],96 °C
15,CCC(C)OC(C)=O (centres undefined) [sec-butyl acetate],16 °C
16,CCN [ethylamine],-17 °C
17,CCC(C)(C)O [2-methyl-2-butanol],21 °C
18,CC=CC#N [2-butenenitrile],20 °C
19,CCCCCCCF [1-fluoroheptane],13 °C
20,CCCC#N [n-butyronitrile],16 °C
21,CCCC(=O)O [n-butyric acid],69 °C
22,Clc1ccc(Cl)cc1 [p-dichlorobenzene],66 °C
23,NC1CCCCC1 [cyclohexylamine],28 °C
24,N#CCc1ccccc1 [benzyl cyanide],101 °C

# From a flash point compilation (Sun et al. 2020)
